The subject of assay [1] is thapsigargin-induced IFN-g production in human whole blood. The format is cell-based.
Assay [2] deals with thapsigargin-induced IL-2 production in human whole blood.
Where [3] appears, read: read-out: Analogue Activity (IC50) WB/IFNg.
Setting [4] is: read-out: Analogue Activity (IC50) WB/IL-2.

Where two headings read alike, the source gives them in different places. Bridge positions count the residues as written; N and C are the ends. Square brackets hold non-standard residues; d marks the D form. Peptide text beside a SMILES is read from it. 1Nal = N[C@@H](Cc1cccc2ccccc12)C(=O)O

Turning to `CC[C@H](C)[C@@H]1NC(=O)[C@H](CCCCN)NC(=O)[C@@H](NC(=O)[C@H](CCCCN)NC(=O)[C@@H](NC(=O)[C@H](CC(N)=O)NC(=O)[C@H](CCC(=O)O)NC(=O)[C@@H](NC(=O)[C@@H](NC(=O)CN)C(C)C)[C@@H](C)CC)C(C)C)CSSC[C@@H]2NC(=O)[C@H](CCCCN)NC(=O)CNC(=O)[C@H](Cc3ccccc3)NC(=O)[C@H](CCCNC(=N)N)NC(=O)[C@H](CCSC)NC(=O)CNC(=O)[C@H](C)NC(=O)[C@H](CCCCN)NC(=O)[C@H](CCCCN)NC(=O)[C@@H]3CSSC[C@@H](C(=O)N[C@H](C(=O)N4CCC[C@H]4C(=O)N[C@@H](CCCCN)C(=O)O)[C@@H](C)O)NC(=O)[C@H](Cc4c[nH]cn4)NC(=O)[C@H](CSSC[C@H](NC(=O)[C@H](CCC(N)=O)NC(=O)[C@H](CCCNC(=N)N)NC(=O)[C@H](CO)NC1=O)C(=O)N[C@@H](CC(C)C)C(=O)N[C@@H](CCC(=O)O)C(=O)N1CCC[C@H]1C(=O)N3)NC(=O)[C@H](CCCCN)NC(=O)CNC(=O)[C@H](CC(N)=O)NC(=O)[C@H](CCSC)NC2=O` [I4E] (H-GVIENVKCKISRQCLEPCKKAGMRFGKCMNGKCHCTPK-OH; disulfide 8-28, 14-33, 18-35), the IC50 was found to be 0.191 nM in assay [1] (setting [3]) and 0.218 nM in assay [2] (setting [4]).
The matching figures for `CC[C@H](C)[C@@H]1NC(=O)[C@H](Cc2cccc3ccccc23)NC(=O)[C@@H](NC(=O)[C@H](CCCCN)NC(=O)[C@@H](NC(=O)[C@H](CC(N)=O)NC(=O)[C@@H](NC(=O)[C@@H](NC(=O)[C@@H](NC(=O)CN)C(C)C)[C@@H](C)CC)[C@@H](C)CC)C(C)C)CSSC[C@@H]2NC(=O)[C@H](CCCCN)NC(=O)CNC(=O)[C@H](Cc3ccccc3)NC(=O)[C@H](CCCNC(=N)N)NC(=O)[C@H](CCSC)NC(=O)CNC(=O)[C@H](C)NC(=O)[C@H](CCCCN)NC(=O)[C@H](CCCCN)NC(=O)[C@@H]3CSSC[C@@H](C(=O)N[C@H](C(=O)N4CCC[C@H]4C(=O)N[C@@H](CCCCN)C(=O)O)[C@@H](C)O)NC(=O)[C@H](Cc4c[nH]cn4)NC(=O)[C@H](CSSC[C@H](NC(=O)[C@H](CCC(N)=O)NC(=O)[C@H](CCCNC(=N)N)NC(=O)[C@H](CO)NC1=O)C(=O)N[C@@H](CC(C)C)C(=O)N[C@@H](CCC(=O)O)C(=O)N1CCC[C@H]1C(=O)N3)NC(=O)[C@H](CCCCN)NC(=O)CNC(=O)[C@H](CC(N)=O)NC(=O)[C@H](CCSC)NC2=O` [K9Nal] (H-GVIINVKC[1Nal]ISRQCLEPCKKAGMRFGKCMNGKCHCTPK-OH; disulfide 8-28, 14-33, 18-35): 1.22 nM and 1.07 nM.
The like results for `CC[C@H](C)[C@@H]1NC(=O)[C@H](CCCCN)NC(=O)[C@@H](NC(=O)[C@H](CCCCN)NC(=O)[C@@H](NC(=O)[C@H](CC(N)=O)NC(=O)[C@@H](NC(=O)[C@@H](NC(=O)[C@@H](NC(=O)CN)C(C)C)[C@@H](C)CC)[C@@H](C)CC)C(C)C)CSSC[C@@H]2NC(=O)[C@H](CCCCN)NC(=O)CNC(=O)[C@H](Cc3ccccc3)NC(=O)[C@H](CCCNC(=N)N)NC(=O)[C@H](CCSC)NC(=O)CNC(=O)[C@H](C)NC(=O)[C@H](CCCCN)NC(=O)[C@H](CCCCN)NC(=O)[C@@H]3CSSC[C@@H](C(=O)N[C@H](C(=O)N4CCC[C@H]4C(=O)N[C@@H](CCCCN)C(=O)O)[C@@H](C)O)NC(=O)[C@H](Cc4c[nH]cn4)NC(=O)[C@H](CSSC[C@H](NC(=O)[C@H](CCC(N)=O)NC(=O)[C@H](CCCNC(=N)N)NC(=O)[C@H](CO)NC1=O)C(=O)N[C@@H](CC(C)C)C(=O)N[C@@H](CCC(=O)O)C(=O)N1CCC[C@H]1C(=O)N3)NC(=O)[C@H](CCCCN)NC(=O)CNC(=O)[C@H](CCCNC(=N)N)NC(=O)[C@H](CCSC)NC2=O` [N30R] (H-GVIINVKCKISRQCLEPCKKAGMRFGKCMRGKCHCTPK-OH; disulfide 8-28, 14-33, 18-35) were, in that order, 0.445 nM and 0.405 nM.
The matching figures for `CC[C@H](C)[C@@H]1NC(=O)[C@H](CCCCN)NC(=O)[C@@H](NC(=O)[C@H](CCCCN)NC(=O)[C@@H](NC(=O)[C@H](CC(N)=O)NC(=O)[C@@H](NC(=O)[C@@H](NC(=O)[C@@H](NC(=O)CN)C(C)C)[C@@H](C)CC)[C@@H](C)CC)C(C)C)CSSC[C@@H]2NC(=O)[C@H](CCCCN)NC(=O)CNC(=O)[C@H](Cc3ccccc3)NC(=O)[C@H](CCCNC(=N)N)NC(=O)[C@H](CCSC)NC(=O)[C@H](CCCNC(=N)N)NC(=O)[C@H](C)NC(=O)[C@H](CCCCN)NC(=O)[C@H](CCCCN)NC(=O)[C@@H]3CSSC[C@@H](C(=O)N[C@H](C(=O)N4CCC[C@H]4C(=O)N[C@@H](CCCCN)C(=O)O)[C@@H](C)O)NC(=O)[C@H](Cc4c[nH]cn4)NC(=O)[C@H](CSSC[C@H](NC(=O)[C@H](CCC(N)=O)NC(=O)[C@H](CCCNC(=N)N)NC(=O)[C@H](CO)NC1=O)C(=O)N[C@@H](CC(C)C)C(=O)N[C@@H](CCC(=O)O)C(=O)N1CCC[C@H]1C(=O)N3)NC(=O)[C@H](CCCCN)NC(=O)CNC(=O)[C@H](CC(N)=O)NC(=O)[C@H](CCSC)NC2=O` [G22R] (H-GVIINVKCKISRQCLEPCKKARMRFGKCMNGKCHCTPK-OH; disulfide 8-28, 14-33, 18-35): 0.349 nM and 0.292 nM.
Consider `CC[C@H](C)[C@@H]1NC(=O)[C@H](CCCCN)NC(=O)[C@@H](NC(=O)[C@H](CCCCN)NC(=O)[C@@H](NC(=O)[C@H](CC(N)=O)NC(=O)[C@@H](NC(=O)[C@@H](NC(=O)[C@@H](NC(=O)CN)C(C)C)[C@@H](C)CC)[C@@H](C)CC)C(C)C)CSSC[C@@H]2NC(=O)[C@H](CCCCN)NC(=O)CNC(=O)[C@H](Cc3ccccc3)NC(=O)[C@H](CCCNC(=N)N)NC(=O)[C@H](CCSC)NC(=O)CNC(=O)[C@H](C)NC(=O)[C@H](CCCCN)NC(=O)[C@H](CCCCN)NC(=O)[C@@H]3CSSC[C@@H](C(=O)N[C@H](C(=O)N4CCC[C@H]4C(=O)N[C@@H](CCCCN)C(=O)O)[C@@H](C)O)NC(=O)[C@H](Cc4c[nH]cn4)NC(=O)[C@H](CSSC[C@H](NC(=O)[C@H](CCC(N)=O)NC(=O)[C@H](CCCNC(=N)N)NC(=O)[C@H](CO)NC1=O)C(=O)N[C@@H](CC(C)C)C(=O)N[C@@H](CCC(=O)O)C(=O)N1CCC[C@H]1C(=O)N3)NC(=O)[C@H](CCCCN)NC(=O)[C@H](CCC(=O)O)NC(=O)[C@H](CC(N)=O)NC(=O)[C@H](CCSC)NC2=O` [G31E] (H-GVIINVKCKISRQCLEPCKKAGMRFGKCMNEKCHCTPK-OH; disulfide 8-28, 14-33, 18-35), for which the IC50 came to 0.111 nM in assay [1] (setting [3]) and 0.095 nM in assay [2] (setting [4]).
The matching figures for `CC[C@H](C)[C@@H]1NC(=O)[C@H](CCCCN)NC(=O)[C@@H](NC(=O)[C@H](CCCCN)NC(=O)[C@@H](NC(=O)[C@H](CC(N)=O)NC(=O)[C@@H](NC(=O)[C@@H](NC(=O)[C@@H](NC(=O)CN)C(C)C)[C@@H](C)CC)[C@@H](C)CC)C(C)C)CSSC[C@@H]2NC(=O)[C@H](CCCCN)NC(=O)CNC(=O)[C@H](Cc3ccccc3)NC(=O)[C@H](CCCNC(=N)N)NC(=O)[C@H](CCSC)NC(=O)CNC(=O)[C@H](C)NC(=O)[C@H](CCCCN)NC(=O)[C@H](CCCCN)NC(=O)[C@@H]3CSSC[C@@H](C(=O)N[C@H](C(=O)N4CCC[C@H]4C(=O)N[C@@H](CCCCN)C(=O)O)[C@@H](C)O)NC(=O)[C@H](Cc4c[nH]cn4)NC(=O)[C@H](CSSC[C@H](NC(=O)[C@H](CCC(N)=O)NC(=O)[C@H](CCCNC(=N)N)NC(=O)[C@H](CO)NC1=O)C(=O)N[C@@H](CC(C)C)C(=O)N[C@@H](Cc1cccc4ccccc14)C(=O)N1CCC[C@H]1C(=O)N3)NC(=O)[C@H](CCCCN)NC(=O)CNC(=O)[C@H](CC(N)=O)NC(=O)[C@H](CCSC)NC2=O` [E16Nal] (H-GVIINVKCKISRQCL[1Nal]PCKKAGMRFGKCMNGKCHCTPK-OH; disulfide 8-28, 14-33, 18-35): 1.51 nM and 1.02 nM.
With “GVIINVKCKISRQCLEPCKAAGMRFGKCMNGKCHCTPK [Ala-20 (SEQ ID No: 1416)]”, the IC50 in assay [1] (read-out: Average IC50 IFNg) and in assay [2] (read-out: Average IC50 IL-2) was 0.379 nM each time.
Consider “GVIIAVKCKISRQCLEPCKKAGMRFGKCMNGKCHCTPK [Ala-5 (SEQ ID No: 1404)]”, for which the values for the IC50 in assay [1] (read-out: Average IC50 IFNg) and in assay [2] (read-out: Average IC50 IL-2) were 0.067 nM and 0.0679 nM, respectively.
Regarding `CC[C@H](C)[C@@H]1NC(=O)[C@H](CCCCN)NC(=O)[C@@H](NC(=O)[C@H](CCCCN)NC(=O)[C@@H](NC(=O)[C@H](CC(N)=O)NC(=O)[C@@H](NC(=O)[C@@H](NC(=O)[C@@H](NC(=O)CN)C(C)C)[C@@H](C)CC)[C@@H](C)CC)C(C)C)CSSC[C@@H]2NC(=O)[C@H](CCCCN)NC(=O)CNC(=O)[C@H](Cc3ccccc3)NC(=O)[C@H](CCCNC(=N)N)NC(=O)[C@H](CCC(=O)O)NC(=O)CNC(=O)[C@H](C)NC(=O)[C@H](CCCCN)NC(=O)[C@H](CCCCN)NC(=O)[C@@H]3CSSC[C@@H](C(=O)N[C@H](C(=O)N4CCC[C@H]4C(=O)N[C@@H](CCCCN)C(=O)O)[C@@H](C)O)NC(=O)[C@H](Cc4c[nH]cn4)NC(=O)[C@H](CSSC[C@H](NC(=O)[C@H](CCC(N)=O)NC(=O)[C@H](CCCNC(=N)N)NC(=O)[C@H](CO)NC1=O)C(=O)N[C@@H](CC(C)C)C(=O)N[C@@H](CCC(=O)O)C(=O)N1CCC[C@H]1C(=O)N3)NC(=O)[C@H](CCCCN)NC(=O)CNC(=O)[C@H](CC(N)=O)NC(=O)[C@H](CCSC)NC2=O` [M23E] (H-GVIINVKCKISRQCLEPCKKAGERFGKCMNGKCHCTPK-OH; disulfide 8-28, 14-33, 18-35), the IC50 amounted to 0.666 nM in assay [1] (setting [3]) and 0.606 nM in assay [2] (setting [4]).
The matching figures for `CC[C@H](C)[C@@H]1NC(=O)[C@H](CCCCN)NC(=O)[C@@H](NC(=O)[C@H](CCCCN)NC(=O)[C@@H](NC(=O)[C@H](CC(N)=O)NC(=O)[C@@H](NC(=O)[C@@H](NC(=O)[C@@H](NC(=O)CN)C(C)C)[C@@H](C)CC)[C@@H](C)CC)C(C)C)CSSC[C@@H]2NC(=O)[C@H](CCC(=O)O)NC(=O)CNC(=O)[C@H](Cc3ccccc3)NC(=O)[C@H](CCCNC(=N)N)NC(=O)[C@H](CCSC)NC(=O)CNC(=O)[C@H](C)NC(=O)[C@H](CCCCN)NC(=O)[C@H](CCCCN)NC(=O)[C@@H]3CSSC[C@@H](C(=O)N[C@H](C(=O)N4CCC[C@H]4C(=O)N[C@@H](CCCCN)C(=O)O)[C@@H](C)O)NC(=O)[C@H](Cc4c[nH]cn4)NC(=O)[C@H](CSSC[C@H](NC(=O)[C@H](CCC(N)=O)NC(=O)[C@H](CCCNC(=N)N)NC(=O)[C@H](CO)NC1=O)C(=O)N[C@@H](CC(C)C)C(=O)N[C@@H](CCC(=O)O)C(=O)N1CCC[C@H]1C(=O)N3)NC(=O)[C@H](CCCCN)NC(=O)CNC(=O)[C@H](CC(N)=O)NC(=O)[C@H](CCSC)NC2=O` [K27E] (H-GVIINVKCKISRQCLEPCKKAGMRFGECMNGKCHCTPK-OH; disulfide 8-28, 14-33, 18-35): 7.14 nM and 5.55 nM.

Values taken from patent US7820623B2 (priority 2006, dated 2010).
